The source made the active and inactive calls.
Legend:
[1] = inhibitors of SNCA 5'UTR-driven reporter translation, confirmation, H4 neuroglioma cells, luminescence (AID 1988); type: functional, cell-based
[2] = target: Luciferin 4-monooxygenase (Photinus pyralis, UniProt P08659); assay: firefly luciferase enzyme inhibitors, dose response, biochemical, luminescence (AID 1891)
[3] = LGR2 antagonists, dose response, cell-based, HEK293, CRE-luciferase reporter, cherry pick, set 2 (AID 743343); type: functional;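 further: transfected cells were stimulated with diluted bursicon conditioned medium after compound addition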
[4] = Luminescence-based counterscreen assay for KLF5 inhibitors: dose response cell-based high throughput screening assay to identify cytotoxic compounds using the IEC-6 intestinal epithelial cell line. [Related pubchem assays: 1700 (Primary screen.), 1834 (Confirmation screen.), 1858 (Summary AID.), 1905 (Counterscreen.)]; type: functional
[5] = MC4R antagonists, dose response, counter-screen for LGR2 antagonist project, cell-based, plate reader, cherry pick (AID 743444); type: functional;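 further: transfected HEK 293 cells stimulated with alpha-MSH peptide; potency of inhibitors of the alpha-MSH evoked signal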
[6] = HEK293 cell cytotoxicity, dose response, cytotoxicity control, plate reader, cherry-picked samples (AID 743446); type: functional, cell-based
[7] = Luminescence Cell-Based Dose Response HTS to Identify Inhibitors of 5'UTR Stem-Loop Driven Prion Protein mRNA Translation in H4 Neuroglioblastoma Cells. [Related pubchem assays: 1827 (Project Summary), 1813 (Primary HTS)]; type: functional
[8] = Luminescence Cell-Based Dose Confirmation HTS to Identify Inhibitors of Platelet Dense Granule Release. [Related pubchem assays: 1663 (Primary HTS), 1678 (Summary of Project)]; type: functional
[9] = target: NS3 (Hepatitis C virus, UniProt A3EZJ3); assay: PubChem AID 2173; parameters: species or system Hepacivirus hominis
[10] = target: Protein-tyrosine kinase 2-beta (Homo sapiens, UniProt Q14289);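 further: potency of inhibitors of PYK2 kinase phosphorylation of poly-GT substrate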
[11] = target: Dual specificity tyrosine-phosphorylation-regulated kinase 1A (Rattus norvegicus, UniProt Q63470); type: biochemical, Homo sapiens
[12] = inhibitors of Bluetongue virus cytopathic effect, confirmation, arbovirus, BSR cells (AID 1250); type: functional;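 further: protection from viral cytopathic effect measured as cell viability by ATP luminescence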
[13] = A549 cell cytotoxicity, dose response, cytotoxicity control, plate reader, cherry-pick, antagonist series (AID 743412); type: functional, cell-based
[14] = target: Aryl hydrocarbon receptor (Homo sapiens, UniProt P35869); assay: Luminescence-based cell-based high throughput dose response assay for activators of the Aryl Hydrocarbon Receptor (AHR). [Related pubchem assays: 2796 (Primary screen (AHR activators in singlicate)), 2845 (Confirmation screen (AHR activators in triplicate)), 434939 (Counterscreen (PXR activators in triplicate)), 2804 (Summary (AHR activators))]; type: ADME
[15] = HepG2 cell cytotoxicity, dose response, cytotoxicity control, plate reader, cherry-pick, antagonist series (AID 743416); type: functional, cell-based
[16] = target: T1, Heat shock factor protein 1 (Mus musculus, UniProt P38532); assay: inhibition of MG132-induced HSE-luciferase signal, confirmation, cell-based, NIH3T3, luminescence, dose retest (AID 2382); type: functional;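 further: NIH3T3 fibroblasts with HSF1-driven luciferase reporter stressed by proteasome inhibitor MG132; luminescence from HSF1-driven luciferase expression after 8 hours of MG132 stress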
T1 sequence (P38532 whole entry): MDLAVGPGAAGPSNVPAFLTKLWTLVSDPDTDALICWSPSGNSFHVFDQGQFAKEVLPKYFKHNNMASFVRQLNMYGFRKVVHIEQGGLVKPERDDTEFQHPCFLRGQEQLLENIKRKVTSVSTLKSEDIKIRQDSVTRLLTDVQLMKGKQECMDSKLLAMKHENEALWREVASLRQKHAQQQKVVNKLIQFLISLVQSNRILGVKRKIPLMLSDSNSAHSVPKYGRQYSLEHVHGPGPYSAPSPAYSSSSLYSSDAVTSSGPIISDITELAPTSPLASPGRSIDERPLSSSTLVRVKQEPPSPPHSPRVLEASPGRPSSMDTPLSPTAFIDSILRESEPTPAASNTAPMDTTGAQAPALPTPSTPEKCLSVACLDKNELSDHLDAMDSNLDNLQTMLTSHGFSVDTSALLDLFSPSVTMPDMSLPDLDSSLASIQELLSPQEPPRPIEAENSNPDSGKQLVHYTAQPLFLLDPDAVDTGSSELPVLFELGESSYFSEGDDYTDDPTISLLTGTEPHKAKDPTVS

[17] = target: T2, Low molecular weight phosphotyrosine protein phosphatase (Homo sapiens, UniProt P24666); type: functional; details: read-out: IC50_Mean
T2 sequence (P24666 whole entry): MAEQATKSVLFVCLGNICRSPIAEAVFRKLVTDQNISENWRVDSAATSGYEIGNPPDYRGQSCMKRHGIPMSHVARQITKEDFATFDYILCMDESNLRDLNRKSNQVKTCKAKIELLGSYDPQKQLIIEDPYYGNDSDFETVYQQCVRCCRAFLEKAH

[18] = target: T2, Low molecular weight phosphotyrosine protein phosphatase; type: functional; details: read-out: IC50_Mean; remark: listed apart in the source
[19] = Luminescence Cell-Based Dose Confirmation HTS to Identify Inhibitors of Polyadenylation.; type: functional
[20] = target: T3, Coagulation factor XII (Homo sapiens, UniProt P00748); type: functional;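 further: activated factor XIIa alpha cleaving a fluorogenic AMC peptide substrate; inhibitor potency from loss of enzyme activity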
T3 sequence (P00748 whole entry): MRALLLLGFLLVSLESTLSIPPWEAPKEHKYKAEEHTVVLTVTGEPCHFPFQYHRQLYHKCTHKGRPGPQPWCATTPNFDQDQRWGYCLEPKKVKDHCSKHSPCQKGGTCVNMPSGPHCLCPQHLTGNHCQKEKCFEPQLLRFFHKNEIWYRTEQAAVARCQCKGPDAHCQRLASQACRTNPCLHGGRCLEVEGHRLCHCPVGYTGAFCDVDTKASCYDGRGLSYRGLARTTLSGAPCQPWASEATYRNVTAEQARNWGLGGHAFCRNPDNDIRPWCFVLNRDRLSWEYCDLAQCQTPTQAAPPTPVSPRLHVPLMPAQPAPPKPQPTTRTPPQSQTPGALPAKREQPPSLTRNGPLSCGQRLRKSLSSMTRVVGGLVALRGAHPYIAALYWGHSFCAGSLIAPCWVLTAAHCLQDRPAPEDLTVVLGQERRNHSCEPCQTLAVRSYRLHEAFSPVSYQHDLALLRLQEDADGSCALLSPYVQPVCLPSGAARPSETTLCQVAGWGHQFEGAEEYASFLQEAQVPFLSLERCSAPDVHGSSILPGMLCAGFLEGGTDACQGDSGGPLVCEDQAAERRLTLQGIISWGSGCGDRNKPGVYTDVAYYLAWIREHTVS

[21] = target: Large T antigen (Simian virus 40, UniProt P03070); type: functional, Betapolyomavirus macacae;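 further: Confirmatory-stage PubChem screen for compounds that inhibit SV40 T antigen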
Sequence of Large T antigen (P03070 whole entry): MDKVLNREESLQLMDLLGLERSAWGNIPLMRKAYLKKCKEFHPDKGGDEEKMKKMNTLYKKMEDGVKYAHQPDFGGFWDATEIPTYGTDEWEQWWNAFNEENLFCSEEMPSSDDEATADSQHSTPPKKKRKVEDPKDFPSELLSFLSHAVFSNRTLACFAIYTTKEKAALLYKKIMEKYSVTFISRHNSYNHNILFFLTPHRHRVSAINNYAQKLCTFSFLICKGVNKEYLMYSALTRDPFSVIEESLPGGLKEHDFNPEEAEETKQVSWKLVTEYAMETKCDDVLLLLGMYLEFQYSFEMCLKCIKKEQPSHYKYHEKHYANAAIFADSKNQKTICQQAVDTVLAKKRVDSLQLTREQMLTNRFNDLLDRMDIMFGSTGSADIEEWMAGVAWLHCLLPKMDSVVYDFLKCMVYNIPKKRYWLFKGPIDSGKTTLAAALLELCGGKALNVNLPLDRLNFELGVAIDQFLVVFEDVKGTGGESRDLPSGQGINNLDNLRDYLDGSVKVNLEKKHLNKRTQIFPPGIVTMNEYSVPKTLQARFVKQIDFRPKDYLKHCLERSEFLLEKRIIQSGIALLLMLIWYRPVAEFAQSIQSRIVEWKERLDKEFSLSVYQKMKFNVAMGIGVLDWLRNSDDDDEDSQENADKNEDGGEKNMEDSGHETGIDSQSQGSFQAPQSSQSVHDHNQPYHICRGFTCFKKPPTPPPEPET

Sequence of NS3 (A3EZJ3 whole entry): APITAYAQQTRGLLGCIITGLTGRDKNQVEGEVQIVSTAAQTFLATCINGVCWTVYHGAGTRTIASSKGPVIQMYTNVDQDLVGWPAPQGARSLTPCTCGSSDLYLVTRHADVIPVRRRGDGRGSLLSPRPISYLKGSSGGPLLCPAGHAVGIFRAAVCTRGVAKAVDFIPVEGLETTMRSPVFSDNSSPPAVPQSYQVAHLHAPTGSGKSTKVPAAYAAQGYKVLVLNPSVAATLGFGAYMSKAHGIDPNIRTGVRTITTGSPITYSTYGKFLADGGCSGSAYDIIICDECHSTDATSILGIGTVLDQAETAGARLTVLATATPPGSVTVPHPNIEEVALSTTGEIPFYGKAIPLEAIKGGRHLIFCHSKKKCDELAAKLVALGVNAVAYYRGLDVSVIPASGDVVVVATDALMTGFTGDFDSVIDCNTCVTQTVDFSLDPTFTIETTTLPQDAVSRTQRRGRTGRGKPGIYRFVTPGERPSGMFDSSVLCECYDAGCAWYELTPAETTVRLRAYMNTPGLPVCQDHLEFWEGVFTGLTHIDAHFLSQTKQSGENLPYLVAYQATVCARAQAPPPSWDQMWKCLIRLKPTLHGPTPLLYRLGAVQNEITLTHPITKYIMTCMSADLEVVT
Sequence of Luciferin 4-monooxygenase (P08659 whole entry): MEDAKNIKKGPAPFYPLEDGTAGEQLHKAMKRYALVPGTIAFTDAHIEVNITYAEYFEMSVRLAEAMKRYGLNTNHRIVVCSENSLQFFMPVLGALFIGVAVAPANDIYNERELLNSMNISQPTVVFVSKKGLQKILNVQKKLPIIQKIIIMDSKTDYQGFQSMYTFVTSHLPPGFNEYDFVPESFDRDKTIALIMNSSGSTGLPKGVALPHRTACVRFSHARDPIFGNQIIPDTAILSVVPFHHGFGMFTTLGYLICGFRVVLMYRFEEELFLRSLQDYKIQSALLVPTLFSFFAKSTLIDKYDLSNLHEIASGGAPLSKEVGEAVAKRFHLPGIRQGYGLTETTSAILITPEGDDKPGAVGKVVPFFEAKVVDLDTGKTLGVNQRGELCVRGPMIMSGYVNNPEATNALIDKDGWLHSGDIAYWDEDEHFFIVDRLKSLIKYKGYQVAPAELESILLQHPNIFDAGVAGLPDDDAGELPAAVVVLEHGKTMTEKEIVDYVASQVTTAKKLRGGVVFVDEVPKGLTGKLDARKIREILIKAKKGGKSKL
Sequence of Aryl hydrocarbon receptor (P35869 whole entry): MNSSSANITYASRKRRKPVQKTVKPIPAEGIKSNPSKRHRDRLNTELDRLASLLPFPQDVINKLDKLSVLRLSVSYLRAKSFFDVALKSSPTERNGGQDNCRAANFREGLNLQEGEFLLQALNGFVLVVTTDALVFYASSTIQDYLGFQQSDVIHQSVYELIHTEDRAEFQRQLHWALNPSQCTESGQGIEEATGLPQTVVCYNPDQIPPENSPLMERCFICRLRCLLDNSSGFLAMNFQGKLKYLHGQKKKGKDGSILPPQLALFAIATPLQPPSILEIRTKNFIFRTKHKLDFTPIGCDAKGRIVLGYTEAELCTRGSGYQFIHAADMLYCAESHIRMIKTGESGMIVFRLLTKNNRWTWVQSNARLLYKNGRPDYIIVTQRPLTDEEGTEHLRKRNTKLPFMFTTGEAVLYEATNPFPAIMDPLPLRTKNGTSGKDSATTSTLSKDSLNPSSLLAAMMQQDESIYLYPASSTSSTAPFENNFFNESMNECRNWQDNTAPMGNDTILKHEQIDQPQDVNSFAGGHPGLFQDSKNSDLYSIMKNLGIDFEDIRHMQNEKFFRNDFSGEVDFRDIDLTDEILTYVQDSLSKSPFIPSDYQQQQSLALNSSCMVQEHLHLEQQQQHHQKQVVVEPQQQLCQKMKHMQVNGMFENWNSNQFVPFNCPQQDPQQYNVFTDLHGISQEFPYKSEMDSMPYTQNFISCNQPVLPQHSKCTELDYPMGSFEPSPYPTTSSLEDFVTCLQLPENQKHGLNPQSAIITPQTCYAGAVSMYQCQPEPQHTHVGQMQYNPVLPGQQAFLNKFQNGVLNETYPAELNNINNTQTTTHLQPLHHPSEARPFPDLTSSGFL
Sequence of Protein-tyrosine kinase 2-beta (Q14289 whole entry): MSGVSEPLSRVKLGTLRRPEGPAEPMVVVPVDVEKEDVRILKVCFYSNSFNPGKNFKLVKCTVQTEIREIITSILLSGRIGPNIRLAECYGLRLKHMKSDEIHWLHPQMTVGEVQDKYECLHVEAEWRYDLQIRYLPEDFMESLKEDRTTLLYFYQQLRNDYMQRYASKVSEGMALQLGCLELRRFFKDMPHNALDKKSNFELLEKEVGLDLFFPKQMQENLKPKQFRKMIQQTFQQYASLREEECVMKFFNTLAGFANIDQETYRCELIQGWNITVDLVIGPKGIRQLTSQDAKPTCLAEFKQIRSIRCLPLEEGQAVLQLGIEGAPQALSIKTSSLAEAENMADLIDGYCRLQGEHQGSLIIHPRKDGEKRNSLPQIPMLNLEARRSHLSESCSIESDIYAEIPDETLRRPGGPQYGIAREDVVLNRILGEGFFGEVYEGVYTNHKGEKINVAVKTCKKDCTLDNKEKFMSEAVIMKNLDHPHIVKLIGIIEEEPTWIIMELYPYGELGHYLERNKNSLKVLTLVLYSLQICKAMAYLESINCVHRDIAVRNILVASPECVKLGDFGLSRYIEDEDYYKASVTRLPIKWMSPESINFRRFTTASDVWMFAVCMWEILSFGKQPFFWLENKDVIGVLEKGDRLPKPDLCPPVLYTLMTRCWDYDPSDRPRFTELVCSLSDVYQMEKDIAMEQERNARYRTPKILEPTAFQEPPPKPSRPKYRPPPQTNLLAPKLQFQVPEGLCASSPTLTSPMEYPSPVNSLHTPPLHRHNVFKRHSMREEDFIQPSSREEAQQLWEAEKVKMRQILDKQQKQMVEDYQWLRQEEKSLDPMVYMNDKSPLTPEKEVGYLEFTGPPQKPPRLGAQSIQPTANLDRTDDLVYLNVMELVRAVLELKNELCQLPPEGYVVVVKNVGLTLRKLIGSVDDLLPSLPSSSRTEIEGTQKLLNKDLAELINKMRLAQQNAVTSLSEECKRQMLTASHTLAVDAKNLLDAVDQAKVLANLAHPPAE

## O=C(Nc1cccc(O)c1)c1cc(-c2ccc3c(c2)OCO3)on1
[1]
  EC50: 5.97 µM (active)
[2]
  EC50: 349 nM (active)
[3]
  AC50: 4.08 µM (active)
[4]
  IC50: > 39.8 µM (not active)
[5]
  AC50: 5.8 µM (active)
[6]
  AC50: 6.57 µM (active)
[7]
  EC50: > 120 µM (not active)
[8]
  EC50: 1.71 µM (active)

## CC(Oc1ccccc1)C(=O)Nc1oc(-c2ccco2)c(-c2ccco2)c1C#N (centres undefined)
[9]
  IC50: 16.7 µM (not active)

## c1ccc(-c2nccc(-c3ccc(-n4cnc5ccccc54)cc3)n2)cc1
[10]
  IC50: 2.64 µM (active)

## N#Cc1c(C(F)(F)F)cc(-c2cccc(Cl)c2)nc1O
[11]
  AC50: 7.04 µM (active)
[12]
  IC50: 42.9 µM (active)

## CN1CCN(c2ccc(NC(=O)c3sc4ccccc4c3Cl)cc2)CC1
[3]
  AC50: 2.49 µM (active)
[13]
  AC50: 22 µM (active)
[5]
  AC50: 7.85 µM (active)
[14]
  EC50: > 377 nM (active)
[15]
  AC50: 25.5 µM (active)

## CCCCOc1ccc(C2C(C(=O)c3ccc(C)o3)=C(O)C(=O)N2Cc2ccco2)cc1 (centres undefined)
[16]
  EC50: 46.6 µM (active)
[9]
  IC50: 3.26 µM (active)
[17]
  IC50: 54.5 µM (inactive)
[18]
  IC50: > 80 µM (inactive)

## O=C(O)CN1C(=O)/C(=C/c2ccc(N3CCCCC3)o2)SC1=S
[19]
  EC50: 10.6 µM (active)
[20]
  IC50: > 50 µM (inactive)
[21]
  IC50: 31.7 µM (active)

Source: ChEMBL document CHEMBL1201862, “PubChem BioAssay data set” (2004)
